In patent publication US20240317828A1, “T CELL ACTIVATING IMMUNOTHERAPEUTIC FOR TREATMENT OF MUCIN 1 PROTEIN EXPRESSING HUMAN CANCERS” (PDS BIOTECHNOLOGY CORPORATION, priority 2022, published 2024):
Values belong to the substance of their own block, whether it stands above or below them. Where no end group is shown, it is not given here.

Experiments:
[1] = system: MUC1 antigen-specific T cells; assay: ELISPOT of MUC1 antigen-specific T cells in spleens of vaccinated HLA-A2 transgenic mice; type: in vivo, HLA-A2 expressing transgenic mice (AAD mice); details: for antigen strength (immune response): lipidated peptide in the micellar peptide antigen component of the R-DOTAP vaccine; for antigen delivery to dendritic cells and immune cell activation: FIGS. 4 and 5, anionic SSEEDE N-terminal extension, formulated with R-DOTAP nanoparticles and micellar mixture of six lipidated peptides
Method: As illustrated in FIG. 4 HLA-A2 specific CD8 T cell responses to formulations including peptide antigen SSEEDE-C1A (SEQ ID NO:18) and SSEEDE-C2A (SEQ ID NO:19) formulated with R-DOTAP nanoparticles and a micellar mixture with six lipidated peptide agonist antigens, pC3A: (SEQ ID NO:15), pV1A: (SEQ ID NO:2), pV2A: (SEQ ID NO:3), pC5A: (SEQ ID NO:4), pC6A: (SEQ ID NO:5), pP93L: (SEQ ID NO: 16) were evaluated. […] The efficacy of these vaccine formulations in generating T cell responses was measured by dosing HLA-A2 expressing transgenic mice (AAD mice) with two 0.1 ml injections of the vaccine delivered subcutaneously on day 0 and day 7. Negative control groups mice were vaccinated with MUC1 peptides formulated in sucrose buffer. Immune responses specific to vaccine formulation were measured in an ELISPOT assay by enumerating MUC1 antigen-specific T cells, in triplicate wells, in the spleens obtained from vaccinated mice. Each bar in the graph represents the mean SFU per 250,000 splenocytes for a group of vaccinated mice. Error bars represent mean±SEM for five mice in each group. For identifying MUC1-specific T cells, splenocytes were stimulated with peptide sequences C1A (SEQ ID NO:9: YLAIVYLIAL), C2A (SEQ ID NO:10), V1A (SEQ ID NO:13), V2A (SEQ ID NO:14:) C3A (SEQ ID NO:12) and p93L (SEQ ID NO:11)
As shown in FIG. 5 HLA-A2 specific CD8 T cell responses to formulations including peptide antigen SSEEDE-C1A (SEQ ID NO:9) and SSEEDE-C2A ([…]) formulated with R-DOTAP nanoparticles and a micellar mixture with six lipidated peptide agonist antigens, pC3A: (SEQ ID NO:15), pV1A: (SEQ ID NO:2), pV2A: (SEQ ID NO:3), pC5A: (SEQ ID NO:4), pC6A: (SEQ ID NO:5), pP93L: (SEQ ID NO:16) were assessed. […] The efficacy of these vaccine formulations in generating T cell responses was measured by dosing HLA-A2 expressing transgenic mice (AAD mice) with two 0.1 ml injections of the vaccine delivered subcutaneously on day 0 and day 7. Negative control groups mice were vaccinated with MUC1 peptides formulated in sucrose buffer. Immune responses specific to vaccine formulation were measured in an ELISPOT assay by enumerating MUC1 antigen-specific T cells, in triplicate wells, in the spleens obtained from vaccinated mice. Each bar in the graph represents the mean SFU per 250,000 splenocytes for a group of vaccinated mice. Error bars represent mean±SEM for five mice in each group. For identifying MUC1-specific T cells, splenocytes were stimulated with peptide sequences C1A (SEQ ID NO:9: YLAIVYLIAL), C2A (SEQ ID NO:10), V1A (SEQ ID NO:13), V2A (SEQ ID NO:14) C3A (SEQ ID NO:12) and p93L (SEQ ID NO:11).
Control peptide antigen formulations were prepared with 0.5 ml of Montanide plus CpG, or “NCI adjuvant” formulation consisting of 50 μg/ml GM-CSF, 20 μg/ml IL-12, 0.8 mg/ml HBV core (128-140) peptide in incomplete Freund's adjuvant. The efficacy of these vaccine formulations in generating T cell responses was measured by dosing HLA-A2 expressing transgenic mice (AAD mice) with two 0.1 ml injections of the vaccine delivered subcutaneously on day 0 and day 7. Control group mice were vaccinated with MUC1 peptides formulated in sucrose buffer alone. Immune responses specific to vaccine formulation were measured in an ELISPOT assay by enumerating MUC1 antigen-specific T cells, in triplicate wells, in the spleens obtained from vaccinated mice. Each data point in the graph represents the mean SFU per 250,000 splenocytes in vaccinated mice. Error bars represent mean±SEM for five mice in each group. For identifying MUC1-specific T cells, splenocytes were stimulated with peptide sequences C1A (SEQ ID NO:9: YLAIVYLIAL).
Control peptide antigen formulations were prepared with 0.5 ml of Montanide plus CpG, or “NCI adjuvant” formulation consisting of 50 μg/ml GM-CSF, 20 μg/ml IL-12, 0.8 mg/ml HBV core (128-140) peptide in incomplete Freund's adjuvant. […]

[2] = Aqueous solubility of peptide antigens; details: unmodified hydrophobic agonist peptides
[3] = system: HLA-A2, A3, A11 and A24; assay: MHC-binding specificity of MUC1 peptide antigens (HLA binding / HLA affinity); parameters: species or system human; details: agonist sequence; HLA allele the peptide binds; listed as VIA
Source text: Within the human mucin 1 oncoprotein multiple high affinity MHC-binding peptide antigens specific for HLA-A2, A3, A11 and A24 have been identified (Table 1). MHC-binding peptide antigens specific for HLA-A2 have been identified: YLAIVYLIAL (SEQ ID NO:9, C1A), YLIALAVCQV (SEQ ID NO:10, C2A), YLAPPAHGV (SEQ ID NO:13, VIA) and YLDTRPAPV (SEQ ID NO:14, V2A).

[4] = FIG. 8, long peptide mixed with R-DOTAP

Substance: KSS-YLDTRPAPV (not fully specified; lipidated; SITE 1 Epsilon-palmitoyl modified residue) [pV2A, lipidated MUC1 agonist peptide]
antigen strength (immune response) ([1]; FIGS. 3 and 7): strong antigens

Substance: YLAIVYLIALAVCQVRRKNYGQLDIFPARDKYHPMSEYAL [YL40]
antigen specific responses to antigens C1A and C2A ([1]; FIG. 6, long peptide with lipidated peptide micelles and 3 mg R-DOTAP in 1 ml): strong antigen specific responses | C1A response (activity) [1, 4]: induces a significant C1A response | C1A specific T-cell responses ([1]; FIGS. 6 and 7, long peptide delivered with R-DOTAP nanoparticles): high level detection

aqueous solubility [2]: limited aqueous solubility
Substance: YLIALAVCQV [C2A, YLIALAVCQV]

Substance: YLIALAVCQVRRKNYGQLDIFPARDKYHPMSEYAL- [YL35]
C2A response [1, 4]: did not generate a significant C2A response

Substance: SSEEDE-YLAIVYLIAL (SSEEDEYLAIVYLIAL) [SSEEDE-C1A, C1A with cleavable anionic N-terminal extension SSEEDE]
antigen delivery to dendritic cells and immune cell activation [1]: effective delivery

Substance: YLDTRPAPV (not fully specified) [V2A, MUC1 agonist peptide antigen]
antigen strength (immune response) ([1]; FIGS. 3 and 7): strong antigens

Substance: SSEEDE-YLIALAVCQV (SSEEDEYLIALAVCQV) [SSEEDE-C2A, C2A with cleavable anionic N-terminal extension SSEEDE]
antigen delivery to dendritic cells and immune cell activation [1]: effective delivery

HLA Binding [3]: HLA-A2
Substance: YLAPPAHGV (not fully specified) [V1A, MUC1 agonist peptide antigen]
antigen strength (immune response) ([1]; FIGS. 3 and 7): strong antigens

Substance: YLAIVYLIAL [C1A]
C1A-specific T cell response (immunoactivity) ([1]; FIG. 1, peptide inserted into lipid bilayer of R-DOTAP nanoparticle, two 0.1 ml s.c. injections day 0 and 7, splenocytes stimulated with C1A): effective immunoactivity | immune response ([1]; FIG. 8, short peptides encapsulated (incorporated into the R-DOTAP bilayer)): did generate a significant response | immune response ([1]; FIG. 8, short peptides mixed with R-DOTAP): did not generate a significant response | immune response (HLA-A2 specific CD8 T cell) ([1]; FIGS. 3 and 7, peptides inserted into R-DOTAP nanoparticle lipid bilayer, with micellar lipidated V1A/V2A, 3 mg R-DOTAP per ml): strong immune responses | generation of immune responses ([1]; peptide included in antigen mixtures mixed/formulated with R-DOTAP nanoparticles (not inserted in bilayer)): ordinarily inactive

Substance: KSS-YLAPPAHGV (not fully specified; lipidated; SITE 1 Epsilon-palmitoyl modified residue) [pV1A, lipidated MUC1 agonist peptide]
antigen strength (immune response) ([1]; FIGS. 3 and 7): strong antigens
